Measured values taken from US20070275100A1, “Use of gaseous nitric oxide as an anti-cancer agent” (priority 1998, published 2007).
Where “and” joins values, the source holds several entries; their conditions need not be identical. Equal values may be shown once.

Tests used:
[1] = system: H460-epithelial metastatic; large cell lung cancer cells; assay: MTS proliferation assay, H460 cells under continuous gNO exposure (Example 1); format: cell-based, human
Description: (gNO) 200 ppm and 350 ppm compared to air (control) on the survival of a representative line of cancer cells. […] […] The plates then were removed and cell viability assessed by an MTS proliferation assay.
When exposed to 350 ppm of gNO, however, cancer cell survival rates decrease dramatically.

[2] = system: normal human bronchial epithelial cells (NHBE); assay: Viability under 25,000 ppm gNO (Example 5), NHBE; format: cell-based; conditions: after 6 minutes, FIG. 8 A
Description: (§1) After 24 hours, the A549, NCI-H23, NCI-H460, HTB-58, H2170 and H441 cells were treated with 25,000 ppm gNO or air (control) for 1 minute, 3 minutes, 6 minutes, 9 minutes, 10 minutes, 20 minutes, and 30 minutes. Immediately following treatment, the viability of the cells was determined using a colorimetric MTS (3-(4,5-dimethylthiazol-2-yl)-5-(3-carboxymethoxyphenyl)-2-(4-sulfophenyl)-2H-tetrazolium, inner salt) cell proliferation assay (commercially available as the CellTiter 960 Aqueous One Solution Cell Proliferation Assay (MTS) from Promega, Madison, Wis., USA) according to the manufacturer's protocol. Briefly, 20 mL of MTS solution was added to each well and the cells were incubated for 2 hours at 37° C. Absorbance was measured at 490 nm for each well using a micro-plate reader (commercially available from Dynex Technologies, Chantilly, Va., USA). The relative percentage of cell survival (viability) was calculated by dividing the absorbance of treated cells by that of control cells for each experimental time point.
The purpose of this example is to illustrate the effects on normal human cell lines compared to the effects on cancerous cell lines of high-dosage gNO. The above study was repeated. […]

[3] = system: infected wound on the skin; assay: Topical gNO applied to an infected wound on the skin; format: in vivo; conditions: 200 ppm gNO topically applied
Description: For anti-inflammatory applications of high concentrations of gNO, it is hypothesized that the high dose of NO acts as a feedback loop to down regulate iNOS, and/or acts as a antioxidant on peroxynitrite and other reactive oxygen species and/or remove the stimulus such as bacterial load all leading to the amelioration of high levels of NO or its reactants resulting in damaging pathogenesis. This hypothesis is supported by testing results of the Applicant wherein 200 ppm gNO was topically applied to an infected wound on the skin. […] It is hypothesized that the body stopped producing the “bad” NO causing pathogenic inflammation.

[4] = system: non-small cell lung cancer (NSCLC) cells lines; assay: MTS cell proliferation assay, 25,000 ppm gNO, NSCLC cell lines taken together (Examples 4 and 5); format: cell-based, human
Description: The purpose of this example is to illustrate the tumorcidal activity of high-dosage gNO. We examined the cellular sensitivity to 25,000 ppm of gNO on 5 non-small cell lung cancer (NSCLC) cells lines by an MTS cell proliferation assay.
Human lung cancer cell lines A549, NCI-H23, NCI-H460, HTB-58, H2170, and H441 (commercially available from American Type Culture Collection (“ATCC”), Manassas, Va.) were maintained in culture medium recommended by ATCC. All media were supplemented with 1% penicillin/streptomycin and 10% fetal bovine serum (commercially available from Invitrogen Gibco-BRL, Burlington, Ontario, Canada). All cell lines were incubated in a humidified incubator at 37° C. supplied with 5% carbon dioxide. The cell lines were tested regularly for the absence of Mycoplasma infections. The cells were routinely maintained in 25 cm tissue culture flasks (commercially available from BD Biosciences Discovery Labware, Oakville, Ontario, Canada) and were harvested by 0.25% trypsin (commercially available from Invitrogen-Gibco-BRL) treatment when they were in a logarithmic phase of growth for all experiments. […]
as §1, with “Briefly, 20 mL of MTS solution was added to each well and the cells were incubated for 2 hours at 37° C.” left out, “point. […]” for “point.”

[5] = 350 ppm NO, 2 hours, RPMI medium
[6] = 350 ppm NO, 2 hours, RPMI medium, listed as NO

`[N]=O` [gNO, nitric oxide] was tested. Which Average [1, 5] did it give?
The Average was 0.158.

What about the Survival [1, 5] of the same compound?
The Survival was “about 0%”.

What about the “Corrected Average” value ([1]; 350 ppm NO, 2 hours, RPMI medium, blank subtracted) of the same compound?
Its value is 0.037.

And the “MTS assay reading, individual wells” value [1, 6]?
Its value is 0.193 and 0.147 and 0.152 and 0.154 (2×) and 0.156 and 0.172 and 0.157 and 0.149 (2×) and 0.165 and 0.155 and 0.158 and 0.145 and 0.184 and 0.143.

And the Survival [1, 6]?
The Survival was 2%.

What about the survivability ([1]; 350 ppm gNO, 24 hours continuous exposure, compared to air (control)) of the same compound?
The survivability was 2%.

And the viability [2]?
Its viability is “less than 10%”.

And the bacterial load [3]?
The bacterial load was “significantly reduced”.

What about the “inflammatory bodies (histological results)” value [3] of the same compound?
Its value is “significant reduction”.

What about the “serum NOX levels” value ([3]; compared to the infected control) of the same compound?
Its value is “lower”.

What about the viability at 25000 ppm ([4]; Homo sapiens, 0.15 h, at 9 minutes, read-out: viability, mean value of the other three NSCLC lines) of the same compound?
Its viability at 25000 ppm is 10.7 ± 2.08%.

What about the “cells killed, all five cancer cell lines” value ([4]; between 6 and 9 minutes, Example 4) of the same compound?
The value was 75-95%.

And the “cells killed, all five cancer cell lines” value ([4]; between about 6 and about 9 minutes, repeat study, Example 5)?
Its value is 75-95%.
